The values below come from the Deep4Chem optical property database.

The data set can be described thus: solvent given as SMILES.

In turn, `c1ccc(N2N=C(c3ccc4ccc5cccc6ccc3c4c56)CC2c2ccc3ccc4cccc5ccc2c3c45)cc1` (stereo unspecified) came in with an absorption maximum (in ClCCl) of 422 nm.

For the compound `CCCCC1(CCCC)c2cc(-c3ccc(C=C4C(=O)c5ccccc5C4=O)cc3)ccc2-c2ccc(-c3ccc(C=C4C(=O)c5ccccc5C4=O)cc3)cc21`, the absorption maximum worked out at 438 nm (in C1CCOC1); 435 nm (in CC(C)=O); 418 nm (in CCCCCC); 445 nm (in CS(C)=O); 437 nm (in Cc1ccccc1); 445 nm (in ClC(Cl)Cl).

On to `Cc1cc(C)c(B(c2cc(-c3c(C)cc(C)cc3C)sc2-c2sc(-c3c(C)cc(C)cc3C)cc2P(=O)(c2ccccc2)c2ccccc2)c2c(C)cc(C)cc2C)c(C)c1`, for which the absorption maximum (in CO) amounted to 370 nm.

For the compound `N#Cc1cc2ccc([O-])cc2oc1=O`, the absorption maximum (in O) is recorded as 408 nm.

For `CCCCCCCCC1(CCCCCCCC)c2cc3c(cc2-c2sc(-c4ccc(/C=C5\SC(N6CCCCC6)=NC5=O)c5nsnc45)cc21)C(CCCCCCCC)(CCCCCCCC)c1cc(-c2ccc(/C=C4\SC(N5CCCCC5)=NC4=O)c4nsnc24)sc1-3`, the absorption maximum (in ClC(Cl)Cl) is listed as 606 nm.

`C(=C/c1ccc(N(c2ccccc2)c2ccccc2)cc1)/c1ccc(N(c2ccccc2)c2ccccc2)cc1`: the absorption maximum (in ClCCl) is given as 370 nm.

On to `CCC1=C(C)C2=C(c3c4ccccc4c(-c4ccccc4)c4ccccc34)c3c(C)c(CC)c(C)n3[B-](F)(F)[N+]2=C1C`, for which the absorption maximum by setting is: (in CC#N) 528 nm; (in CCCCCC) 531 nm; (in CCO) 529 nm; (in CN(C)C=O) 530 nm; (in Cc1ccccc1) 534 nm; (in ClCCl) 532 nm.

Under “in CCO”, `CC(C)(C)Nc1cc2oc3cc(NC(C)(C)C)c(F)cc3c(=O)c2cc1F` returned an absorption maximum of 368 nm.

Under “in ClCCl”, `N#Cc1cc(/C=C/c2ccc(N(c3ccccc3)c3ccccc3)cc2)ccc1-c1ccc(/C=C/c2ccc(N(c3ccccc3)c3ccccc3)cc2)cc1C#N` displayed an absorption maximum of 386 nm.

For `CCOC(=O)CN(CC(=O)OCC)c1ccc(-c2cc(-c3ccncc3)nc(-c3ccncc3)c2)cc1`, the absorption maximum by setting is: (in CC#N) 334 nm; (in CCOC(C)=O) 334 nm; (in CN(C)C=O) 342 nm; (in CS(C)=O) 344 nm; (in c1ccccc1) 332 nm.

Compound `C(#Cc1nc2ccccc2s1)c1ccc(N(c2ccccc2)c2ccccc2)cc1` came in with an absorption maximum (in Cc1ccccc1) of 388 nm.

`O=c1c2cc(Br)ccc2nc2n1[B-](F)(F)[n+]1ccccc1-2` displayed an absorption maximum (in CC#N) of 343 nm and an absorption maximum (in ClCCl) of 358 nm.

As for `Cc1ccc2c(c1)C1(c3ccccc3-c3ccccc31)c1cc(C)ccc1N2c1ccc(-c2ncccn2)cc1`, the absorption maximum (in Cc1ccccc1) is 380 nm.

For `CCN(CC)c1ccc(/N=N/c2nc3ccc(Br)cc3s2)cc1`, the absorption maximum is recorded as 520 nm (in CC#N) and 518 nm (in ClCCl).

Where the note is “in ClCCl”, `CC(C)c1cccc(C(C)C)c1N1C(c2ccccc2)=Cc2ccc3ccccc3[n+]2[B-]1(F)F` had an absorption maximum of 447 nm.

With `N#C/C(=N/Nc1ccc(C#N)cc1)c1nc(-c2ccccc2)cs1`, the absorption maximum is given as 396 nm (in CC#N); 398 nm (in CCO); 477 nm (in CN(C)C=O); 401 nm (in Cc1ccccc1); 399 nm (in ClCCl).

On to `CC(C)[Si](C#Cc1c2cc3ccccc3cc2c(C#Cc2ccc(Br)cc2)c2cc3ccccc3cc12)(C(C)C)C(C)C`, for which the absorption maximum (in ClCCl) is recorded as 654 nm.

With `Cc1cc(C)c(B(c2c(C)cc(C)cc2C)c2c(C)cc(N3c4ccccc4Oc4ccccc43)cc2C)c(C)c1`, the absorption maximum (in Cc1ccccc1) is 399 nm.

Take `CCOC(=O)C1=CN(Cc2ccccc2)C=C(C(=O)OCC)C1`: the absorption maximum is 367 nm (in C1CCOC1) and 371 nm (in CO).

As to `[NH3+]C(Cc1c[nH]c2ccccc12)C(=O)[O-]` (stereo unspecified), the absorption maximum (in O) worked out at 277 nm.

For `CC(C)(C)c1ccc2c(c1)[nH]c1c3[nH]c4cc(C(C)(C)C)ccc4c3c3nsnc3c21`, the absorption maximum stood at 412 nm (in CN(C)C=O), 406 nm (in Cc1ccccc1) and 411 nm (in ClCCl).

`C1=C(c2ccc(-c3cccs3)s2)CCC(c2ccccc2)C1` (stereo unspecified): the absorption maximum was 342 nm (in C1CCOC1); 341 nm (in CC#N); 341 nm (in CCCCCC); 341 nm (in CCO); 346 nm (in OCCOCCO); 347 nm (in c1ccncc1).

Compound `CC(C)c1cccc(C(C)C)c1N1C(=O)c2cc(Cl)c3c4c(Cl)cc5c6c(cc(Cl)c(c7c(Cl)cc(c2c37)C1=O)c64)C(=O)N(c1c(C(C)C)cccc1C(C)C)C5=O` yielded an absorption maximum (in Cc1ccccc1) of 523 nm.

On to `COc1ccc(/C=C/c2ccncn2)cc1`, for which the absorption maximum (in ClCCl) turned out to be 338 nm.

With `COc1ccc(OC)c(C2=C3C=CC(=[N+](C)C)C=C3[Si](C)(C)c3cc(N(C)C)ccc32)c1`, the absorption maximum (in O) came to 651 nm.

In the case of `CC(=O)Nc1ccccc1C(=O)OC1CC(C)CCC1C(C)C` (stereo unspecified), the absorption maximum came out at 315 nm (in C1CCCCC1); 310 nm (in CC#N); 310 nm (in CCO); 307 nm (in CO); 313 nm (in Cc1ccccc1); 312 nm (in ClC(Cl)Cl). Besides, under “in ClCCl”, the absorption maximum is reported as 310 nm.

Under “in ClCCl”, `CCCCCCOc1ccc(N(c2ccc(OCCCCCC)cc2)c2ccc(-c3sc(-c4ccc(N(c5ccc(OCCCCCC)cc5)c5ccc(OCCCCCC)cc5)cc4)c4nc(CC)c(CC)nc34)cc2)cc1` came in with an absorption maximum of 532 nm.

`COc1ccc(C(=Cc2ccc(/C=C/c3ccc(C#N)cc3)cc2)c2ccc(OC)cc2)cc1`: the absorption maximum (in C1CCOC1) is 379 nm.

`COc1ccc(-c2oc3cccc4c5c(-c6ccc(OC)cc6)/c(=N/S(=O)(=O)C(F)(F)F)oc6cccc(c2c34)c65)cc1`: the absorption maximum (in ClC(Cl)Cl) came out at 480 nm.

In the case of `F[B-]1(F)n2c(-c3ccccc3)cc(-c3ccccc3)c2C(c2ccccc2)=C2C(c3ccccc3)=CC(c3ccccc3)=[N+]21`, the absorption maximum (in C1CCOC1) amounted to 561 nm.

In turn, `Cc1cc(C)c(B2c3cc(C(C)(C)C)ccc3-c3c(-c4ccccc4)ccc4cc(C(C)(C)C)cc2c34)c(C)c1` came in with an absorption maximum (in C1CCCCC1) of 406 nm.

Regarding `c1ccc(-c2ccc(-c3cc(-c4ccccn4)nc(-c4ccccn4)c3)cc2)cc1`, under “in ClCCl”, the absorption maximum is 291 nm.

`C(=C\c1cc[n+]2ccc(/C=C/c3cc[nH]c3)cc2c1)/c1cc[nH]c1` showed an absorption maximum (in CO) of 457 nm.

Where the note is “in ClC(Cl)Cl”, `N#CC1=CC(/C=C/c2ccccc2)=CC(C#N)=P1(c1ccccc1)c1ccccc1` registered an absorption maximum of 506 nm.

As to `CCCCCCN1C(=O)c2cccc3c(-c4ccc(-c5cc(-c6ccc(OC)cc6)n(-c6ccccc6)n5)s4)ccc(c23)C1=O`, the absorption maximum (in ClCCl) is recorded as 403 nm.

Consider `CCCCCCN1C(=O)C(c2ccc(-n3c4ccccc4c4ccccc43)cc2)=C(c2ccc(-n3c4ccccc4c4ccccc43)cc2)C1=O`, for which the absorption maximum is reported as 421 nm (in ClC(Cl)Cl) and 426 nm (in c1ccc2c(c1)c1ccccc1n2-c1ccc(-c2ccc(-n3c4ccccc4c4ccccc43)cc2)cc1).

Turning to `F[Si](c1ccccc1)(c1ccccc1)c1cccc2ccccc12`, for the setting “in C1CCOC1”, the absorption maximum turned out to be 286 nm.

Take `Cc1c2ccncc2c(C)c2c1[nH]c1ccccc12`: the absorption maximum is, setting by setting: (in C1CCCCC1) 290 nm; (in C1CCOC1) 293.3 nm; (in C1COCCO1) 292.5 nm; (in CC#N) 291.5 nm; (in CC(C)(C)O) 294.5 nm; (in CC(C)O) 294.5 nm. The absorption maximum by setting is: (in CCC(C)(C)O) 294.5 nm; (in CCCCCC) 289.5 nm; (in CCCCO) 295 nm; (in CCO) 294 nm; (in CCOC(C)=O) 291.5 nm; (in CCOCC) 291.5 nm. The absorption maximum reads like this: (in CN(C)C=O) 293.5 nm; (in CO) 294 nm; (in CS(C)=O) 295 nm; (in Cc1ccccc1) 293 nm.

As to `Cc1cc(=O)oc2c1cc(Br)c1occ(C)c12`, the absorption maximum is 333 nm (in C1CCCCC1) and 330 nm (in CCO).

With `CCC1=C(C2=C(C3=C(CC)S(=O)(=O)c4cc(-c5ccc(C(C)=O)s5)ccc43)C(F)(F)C(F)(F)C2(F)F)c2ccc(-c3ccc(C(C)=O)s3)cc2S1(=O)=O`, where the note is “in C1COCCO1”, the absorption maximum came to 363 nm.

`c1ccc2cc3c(cc2c1)-c1cccc2c1c-3cc1ccccc12` returned an absorption maximum (in CCCCCCC) of 400 nm.

`F[B-]1(F)OC(c2cccc(Br)c2)=Cc2c3ccccc3cc[n+]21`: the absorption maximum (in ClC(Cl)Cl) is recorded as 399.5 nm.

As for `Oc1ccc(Br)cc1-c1nc2c(c3c1-c1ccccc1CC3)-c1ccccc1CC2`, the absorption maximum (in ClCCl) came to 345 nm.

Compound `CN1CCN(c2cccc(/C=C/c3ncc(-c4ccc(OCc5ccccc5)c(OCc5ccccc5)c4)o3)c2)CC1` had an absorption maximum (in ClCCl) of 354 nm.

Turning to `CCOC(=O)c1c2c3c(ccc([N+](=O)[O-])c3c3cc4ccccc4cc13)N(C)C2=O`, where the note is “in CC#N”, the absorption maximum is on record as 394 nm.

The compound `c1ccc(C(=C(c2ccccc2)c2ccc(-c3ccc(-c4nc5c(-c6ccc(-c7ccc(C(=C(c8ccccc8)c8ccccc8)c8ccccc8)cc7)cc6)sc(-c6ccc(-c7ccc(C(=C(c8ccccc8)c8ccccc8)c8ccccc8)cc7)cc6)c5nc4-c4ccc(-c5ccc(C(=C(c6ccccc6)c6ccccc6)c6ccccc6)cc5)cc4)cc3)cc2)c2ccccc2)cc1` displayed an absorption maximum (in Cc1ccccc1) of 530 nm and an absorption maximum (in ClCCl) of 520 nm.

As for `N#Cc1ccc(Oc2ccc3c4c(cccc24)C(=O)N(CCO)C3=O)cc1`, the absorption maximum (in ClC(Cl)Cl) is listed as 352 nm.

Turning to `CCCCN(CCCC)c1ccc(/C=C/c2ccc3nc(/C=C/c4nc5ccc(/C=C/c6ccc(N(CCCC)CCCC)cc6)cc5n(CCC)c4=O)c(=O)n(CCC)c3c2)cc1`, the absorption maximum amounted to 528 nm (in C1COCCO1) and 549 nm (in ClCCl).
